Source: patent US7429564B2, “Oral insulin therapy” (Emisphere Technologies, Inc., priority 2002, dated 2008)
Read-outs that look alike come from different tables or passages of the source.

Assays:
[1] = Example 8: food effect on 4-CNAB pharmacokinetics, type 1 diabetes patients; type: in vivo, human; conditions: for AUC / Cmax / Tmax / AUC(0-inf) / half-life: human, plasma; for AUC(0-inf): read-out: Plasma 4-CNAB AUC0-inf; for half-life: read-out: Plasma 4-CNAB t1/2 (converted)
Experimental: A single-center, open label, randomized, single dose, 3-way cross-over study was conducted in type 1 diabetes mellitus patients to investigate the effect of food on the absorption and pharmacokinetics of insulin after a single dose of oral 4-CNAB/insulin, and to determine the effect of food on the pharmacodynamics of glucose and C-peptide after a single oral dose of 4-CNAB/insulin.
For diabetic patients, the study consisted of an eligibility screening period, three study periods and a follow-up exam at the conclusion of the last period. The three study periods included the following: administration of single doses of 4-CNAB/insulin followed by fasting (treatment A), followed by an ADA breakfast […] after dosing (treatment B), and followed by an ADA breakfast […] after dosing (treatment C). The study was conducted using an open label, randomized, crossover design with an interval of at least 7 days between treatments. The patients fasted overnight. The type 1 diabetics were randomized to treatment A or […] in periods 1 and 2. In period 3, all diabetics received treatment C. A total of eight type 1 diabetic patients were enrolled. As a control group, two healthy volunteers were enrolled.
The following treatments were administered to the type 1 diabetics according to the randomization schedule (see below) • a) 400 mg 4-CNAB/300 IU insulin followed by fasting; • b) 400 mg 4-CNAB/300 IU insulin followed by an ADA breakfast 30 minutes after dosing; • c) 400 mg 4-CNAB/300 IU insulin followed by an ADA breakfast 20 minutes after dosing.
Blood samples for pharmacokinetic analysis of 4-CNAB and insulin were drawn 30, 15 and 5 minutes prior to and at 10, 20, 30, 40, 50, 60, 75, 90, 105, 120, 150, 180, 210, and 240 minutes after 4-CNAB/insulin administration (17 samples per subject per period). Blood samples for plasma glucose were drawn 30, 15 and 5 minutes prior to and at 10, 20, 30, 40, 50, 60, 75, 90, 105, 120, 150, 180, 210, and 240 minutes after administration (17 samples per subject per period). Blood samples for C-peptide were drawn 30 and 5 minutes prior to and 30, 60, 90, 120, 180 and 240 minutes after administration (8 samples per subject per period).

[2] = Example 7: 4-CNAB plasma concentrations; type: in vivo, human; conditions: after start of meal intake; 200 or 400 mg 4-CNAB
Experimental: Blood samples for determination of 4-CNAB plasma concentrations (2 mL in sodium heparin tube) were drawn 10, 20, 30, 40, 60, 90, 120, 240 and 360 minutes after start of meal intake (9 samples per session). Blood samples for determination of insulin and C-peptide plasma concentrations (5 mL in sodium heparin tube) were drawn at −60 and −30 minutes, at time 0 (start of meal intake), and after 10, 20, 30, 40, 50, 60, 75, 90, 105, 120, 150, 180, 210, 240, 300, and 360 minutes (19 samples per session). Plasma concentrations of insulin were determined by a GLP-validated microparticle enzyme immunoassay (MEIA).

[3] = Delivery agent plasma concentrations in humans after oral delivery agent capsules; type: in vivo, human
Experimental: Delivery agents 1-3 were investigated for their ability to penetrate the GI mucosa. The plasma concentration of each delivery agent was measured in human subjects after oral administration of delivery agent loaded capsules as a measure of each delivery agent's penetration efficiency.
Blood sampling for plasma delivery agent concentration determination (2 mL in sodium heparin tube) were drawn 15 minutes before dosing, and at 5, 10, 15, 30, and 45 minutes and 1, 1.5, 2, 3, 4, 6, 8, and 12 hours post-dose (14 samples per treatment) for delivery agent measurements in all treatment groups.
Two 18-gauge IV lines were situated prior to dosing; one for blood sampling, and the other for potential infusion of 20% glucose for subjects in groups 2 and 3. The subjects in group 1 only had one cannula inserted. The blood samples were centrifuged at 3000 rpm for a period of fifteen minutes at a temperature from about 2° C. to 8° C., within one hour of sample collection. Using a plastic pipette and without disturbing the red cell layer, the plasma from the collection tube was pipetted in duplicate for each analysis, blood glucose, Human Insulin, C-peptide, delivery agent into pre-labeled polypropylene tubes. The samples were stored at −70° C. until analysis.
The indicated doses were ingested by healthy human volunteers and the plasma concentrations of the delivery agents were monitored over time and the area under the curve (AUC) calculated. […] Similarly, oral administration of 800 mg of delivery agent number 3 produced more than a 23 fold greater penetration of the GI mucosa in humans than did oral administration of 750 mg of delivery agent 2 having n equal to 9 alkyl.

[4] = parameters: species or system rats; conditions: rat, in vivo, po
Experimental: Similarly, for a fixed oral dose of 4-CNAB, insulin absorption increases with increasing doses of insulin. Oral insulin absorption was evaluated in rats at varying doses of both insulin and 4-CNAB. […] The mean peak serum insulin levels were 31, 44, 85, and 132 μU/mL respectively. Insulin absorption was dose dependent and increased as the dose of insulin increased. […] The mean peak serum insulin levels were 9, 39, 103, and 157 μU/mL, respectively. Insulin absorption was dose dependent and increased as the dose of 4-CNAB increased.

[5] = oral, period 0-20 minutes post-dose, Breakfast 20 min post-dose
[6] = oral, period 0-20 minutes post-dose, Breakfast 30 min post-dose
[7] = oral, period 0-20 minutes post-dose, Fasting
[8] = oral, period 0-30 minutes post-dose, Breakfast 20 min post-dose
[9] = oral, period 0-30 minutes post-dose, Breakfast 30 min post-dose
[10] = oral, period 0-30 minutes post-dose, Fasting
[11] = oral, period 0-3 hours post-dose, Breakfast 20 min post-dose
[12] = oral, period 0-3 hours post-dose, Breakfast 30 min post-dose
[13] = oral, period 0-3 hours post-dose, Fasting
[14] = po, 400 mg, 400 mg 4-CNAB/300 IU insulin oral, Breakfast 20 min post-dose
[15] = po, 400 mg, 400 mg 4-CNAB/300 IU insulin oral, Breakfast 30 min post-dose
[16] = po, 400 mg, 400 mg 4-CNAB/300 IU insulin oral, Fasting

O=C(O)CCCNC(=O)c1ccc(Cl)cc1O [4-CNAB, 4-[(4-chloro, 2-hydroxybenzoyl)amino]butanoic acid]
Effect of food intake on 4-CNAB pharmacokinetics ([1]; breakfast 30 or 20 minutes after dosing): no effect on the pharmacokinetics of 4-CNAB | AUC [1, 5]: 2800 ng·h/mL | Cmax [1, 5]: 20600 ng/mL | Tmax ([1]; oral, period 0-20 minutes post-dose, Breakfast 20 min post-dose, read-out: Plasma 4-CNAB tmax): 19.8 min | AUC [1, 6]: 2280 ng·h/mL | Cmax [1, 6]: 18800 ng/mL | Tmax ([1]; oral, period 0-20 minutes post-dose, Breakfast 30 min post-dose, read-out: Plasma 4-CNAB tmax): 19.8 min | AUC [1, 7]: 2900 ng·h/mL | Cmax [1, 7]: 20700 ng/mL | Tmax ([1]; oral, period 0-20 minutes post-dose, Fasting, read-out: Plasma 4-CNAB tmax): 19.8 min | AUC [1, 8]: 6370 ng·h/mL | Cmax [1, 8]: 24600 ng/mL | Tmax ([1]; oral, period 0-30 minutes post-dose, Breakfast 20 min post-dose, read-out: Plasma 4-CNAB tmax): 25.2 min | AUC [1, 9]: 5960 ng·h/mL | Cmax [1, 9]: 24000 ng/mL | Tmax ([1]; oral, period 0-30 minutes post-dose, Breakfast 30 min post-dose, read-out: Plasma 4-CNAB tmax): 28.8 min | AUC [1, 10]: 6300 ng·h/mL | Cmax [1, 10]: 21500 ng/mL | Tmax ([1]; oral, period 0-30 minutes post-dose, Fasting, read-out: Plasma 4-CNAB tmax): 23.4 min | AUC [1, 11]: 16500 ng·h/mL | Cmax [1, 11]: 25000 ng/mL | Tmax ([1]; oral, period 0-3 hours post-dose, Breakfast 20 min post-dose, read-out: Plasma 4-CNAB tmax): 27.6 min | AUC [1, 12]: 17100 ng·h/mL | Cmax [1, 12]: 24000 ng/mL | Tmax ([1]; oral, period 0-3 hours post-dose, Breakfast 30 min post-dose, read-out: Plasma 4-CNAB tmax): 30 min | AUC [1, 13]: 18300 ng·h/mL | Cmax [1, 13]: 21800 ng/mL | Tmax ([1]; oral, period 0-3 hours post-dose, Fasting, read-out: Plasma 4-CNAB tmax): 26.4 min | Cmax [1, 14]: 25000 ng/mL | AUC(0-inf) [1, 14]: 18000 ng·h/mL | half-life [1, 14]: 39 min | Tmax ([1]; po, 400 mg, 400 mg 4-CNAB/300 IU insulin oral, Breakfast 20 min post-dose, read-out: Plasma 4-CNAB tmax, Median (min-max)): 25.2 min | Cmax [1, 15]: 24000 ng/mL | AUC(0-inf) [1, 15]: 18400 ng·h/mL | half-life [1, 15]: 42 min | Tmax ([1]; po, 400 mg, 400 mg 4-CNAB/300 IU insulin oral, Breakfast 30 min post-dose, read-out: Plasma 4-CNAB tmax, Median (min-max)): 30 min | Cmax [1, 16]: 21800 ng/mL | AUC(0-inf) [1, 16]: 20700 ng·h/mL | half-life [1, 16]: 51.6 min | Tmax ([1]; po, 400 mg, 400 mg 4-CNAB/300 IU insulin oral, Fasting, read-out: Plasma 4-CNAB tmax, Median (min-max)): 25.2 min | 4-CNAB plasma concentration after 2 hours relative to level at 10 minutes [2]: less than 10% | Fold greater penetration of the GI mucosa vs delivery agent 1 ([3]; humans, 800 mg vs 750 mg oral): approximately 13.5 fold | Fold greater penetration of the GI mucosa vs delivery agent 2 ([3]; humans, 800 mg vs 750 mg oral): > 23 fold | AUC ([3]; plasma, oral capsules, 800 mg, healthy human volunteers): 47500 ng·h/mL

oral insulin alone: recombinant human zinc insulin given orally without delivery agent
Change in serum insulin levels [4]: did not result in any significant increases in serum insulin levels
